Test results taken from ChEMBL document CHEMBL1201862, “PubChem BioAssay data set” (2004).
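A five-concentration, 48-hour dose response in 96-well plates underlies each endpoint, interpolated linearly between surrounding concentrations. Abbreviation: GI50, concentration required for 50% inhibition of growth.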 Active and inactive are the calls of the source. Rule as the data show it: active = GI50 up to about 1.1 µM and inactive = higher.

Legend:
Experiment in all cases: DTP human tumour cell line panel, 48 h
UO-31 = test system: UO-31
OVCAR-4 = test system: OVCAR-4
NCI-H522 = test system: NCI-H522
PC-3 = test system: PC-3
IGROV-1 = test system: IGROV-1
CCRF-CEM = test system: CCRF-CEM
Malme-3M = test system: Malme-3M
OVCAR-3 = test system: OVCAR-3
T47D = test system: T47D
SF-539 = test system: SF-539
ACHN = test system: ACHN
U-251 = test system: U-251
RPMI-8226 = test system: RPMI-8226
Hs-578T = test system: Hs-578T
SNB-75 = test system: SNB-75
NCI-H460 = test system: NCI-H460
LOX IMVI = test system: LOX IMVI
MDA-N = test system: MDA-N
SR = test system: SR
NCI-H23 = test system: NCI-H23
SNB-19 = test system: SNB-19
HOP-92 = test system: HOP-92
HCT-116 = test system: HCT-116
786-0 = test system: 786-0
SK-MEL-28 = test system: SK-MEL-28
CAKI-1 = test system: CAKI-1
HCC 2998 = test system: HCC 2998
MCF7 = test system: MCF7
K562 = test system: K562
UACC-257 = test system: UACC-257
SW-620 = test system: SW-620
SF-295 = test system: SF-295
HL-60 = test system: HL-60
A498 = test system: A498
EKVX = test system: EKVX
OVCAR-8 = test system: OVCAR-8
OVCAR-5 = test system: OVCAR-5
DU-145 = test system: DU-145
HT-29 = test system: HT-29
SK-MEL-5 = test system: SK-MEL-5
RXF 393 = test system: RXF 393
KM12 = test system: KM12
TK-10 = test system: TK-10
MDA-MB-231 = test system: MDA-MB-231
NCI-H226 = test system: NCI-H226
HOP-62 = test system: HOP-62
SN12C = test system: SN12C
HCT-15 = test system: HCT-15
M14 = test system: M14
A549 = test system: A549
MOLT-4 = test system: MOLT-4
SF-268 = test system: SF-268
BT-549 = test system: BT-549
COLO 205 = test system: COLO 205
NCI/ADR-RES = test system: NCI/ADR-RES
SK-MEL-2 = test system: SK-MEL-2
SK-OV-3 = test system: SK-OV-3
UACC-62 = test system: UACC-62
MDA-MB-435 = test system: MDA-MB-435

Compound: O=C(c1cc(Cl)ccc1Cl)N1CCN(C(=O)c2cc(Cl)ccc2Cl)CC1
- GI50 (UO-31): > 100 µM (inactive)
- GI50 (OVCAR-4): > 100 µM (inactive)
- GI50 (NCI-H522): 34.4 µM (inactive)
- GI50 (PC-3): > 100 µM (inactive)
- GI50 (IGROV-1): > 100 µM (inactive)
- GI50 (CCRF-CEM): > 100 µM (inactive)
- GI50 (Malme-3M): > 100 µM (inactive)
- GI50 (OVCAR-3): > 100 µM (inactive)
- GI50 (T47D): 48.8 µM (inactive)
- GI50 (SF-539): > 100 µM (inactive)
- GI50 (ACHN): 94.4 µM (inactive)
- GI50 (U-251): > 100 µM (inactive)
- GI50 (RPMI-8226): > 100 µM (inactive)
- GI50 (Hs-578T): > 100 µM (inactive)
- GI50 (SNB-75): 33.1 µM (inactive)
- GI50 (NCI-H460): > 100 µM (inactive)
- GI50 (LOX IMVI): > 100 µM (inactive)
- GI50 (MDA-N): > 100 µM (inactive)
- GI50 (SR): > 100 µM (inactive)
- GI50 (NCI-H23): > 100 µM (inactive)
- GI50 (SNB-19): > 100 µM (inactive)
- GI50 (HOP-92): 67.1 µM (inactive)
- GI50 (HCT-116): > 100 µM (inactive)
- GI50 (786-0): 91.2 µM (inactive)
- GI50 (SK-MEL-28): > 100 µM (inactive)
- GI50 (CAKI-1): 97.9 µM (inactive)
- GI50 (HCC 2998): > 100 µM (inactive)
- GI50 (MCF7): > 100 µM (inactive)
- GI50 (K562): > 100 µM (inactive)
- GI50 (UACC-257): > 100 µM (inactive)
- GI50 (SW-620): > 100 µM (inactive)
- GI50 (SF-295): 91 µM (inactive)
- GI50 (HL-60): > 100 µM (inactive)
- GI50 (A498): 27 µM (inactive)
- GI50 (EKVX): > 100 µM (inactive)
- GI50 (OVCAR-8): 30.2 µM (inactive)
- GI50 (OVCAR-5): > 100 µM (inactive)
- GI50 (DU-145): > 100 µM (inactive)
- GI50 (HT-29): > 100 µM (inactive)
- GI50 (SK-MEL-5): 55.6 µM (inactive)
- GI50 (RXF 393): 67.1 µM (inactive)
- GI50 (KM12): > 100 µM (inactive)
- GI50 (TK-10): > 100 µM (inactive)
- GI50 (MDA-MB-231): > 100 µM (inactive)
- GI50 (NCI-H226): > 100 µM (inactive)
- GI50 (HOP-62): 38.8 µM (inactive)
- GI50 (SN12C): > 100 µM (inactive)
- GI50 (HCT-15): > 100 µM
- GI50 (M14): > 100 µM (inactive)
- GI50 (A549): > 100 µM (inactive)
- GI50 (MOLT-4): > 100 µM (inactive)
- GI50 (SF-268): > 100 µM (inactive)
- GI50 (BT-549): > 100 µM (inactive)

Compound: CC(C)[Si](OC1=CCC[C@H]2NC(=O)[C@@H](Cc3ccc([N+](=O)[O-])cc3)[C@@]12C)(C(C)C)C(C)C
- GI50 (COLO 205): 3.98 µM (inactive)
- GI50 (UO-31): 13.4 µM (inactive)
- GI50 (OVCAR-4): 4.47 µM (inactive)
- GI50 (NCI-H522): 4.95 µM (inactive)
- GI50 (PC-3): 3.4 µM (inactive)
- GI50 (NCI/ADR-RES): 11.7 µM (inactive)
- GI50 (IGROV-1): 11.3 µM (inactive)
- GI50 (CCRF-CEM): 2.86 µM (inactive)
- GI50 (Malme-3M): 16.6 µM (inactive)
- GI50 (OVCAR-3): 4.34 µM (inactive)
- GI50 (T47D): 4.73 µM (inactive)
- GI50 (SF-539): 2.42 µM (inactive)
- GI50 (ACHN): 1.49 µM (inactive)
- GI50 (Hs-578T): 7.31 µM (inactive)
- GI50 (SK-MEL-2): 12.8 µM (inactive)
- GI50 (SNB-75): 10.4 µM (inactive)
- GI50 (NCI-H460): 3.35 µM (inactive)
- GI50 (LOX IMVI): 4.9 µM (inactive)
- GI50 (MDA-N): 4.98 µM (inactive)
- GI50 (SR): 2.79 µM (inactive)
- GI50 (NCI-H23): 5.53 µM (inactive)
- GI50 (SNB-19): 12.5 µM (inactive)
- GI50 (HCT-116): 3.68 µM (inactive)
- GI50 (786-0): 5.11 µM (inactive)
- GI50 (CAKI-1): 13.2 µM (inactive)
- GI50 (HCC 2998): 1.95 µM (inactive)
- GI50 (MCF7): 3.73 µM (inactive)
- GI50 (K562): 3.06 µM (inactive)
- GI50 (UACC-257): 5.47 µM (inactive)
- GI50 (SK-OV-3): 10.1 µM (inactive)
- GI50 (SF-295): 4.59 µM (inactive)
- GI50 (HL-60): 3.44 µM (inactive)
- GI50 (EKVX): 6.37 µM (inactive)
- GI50 (OVCAR-8): 11.6 µM (inactive)
- GI50 (OVCAR-5): 8.65 µM (inactive)
- GI50 (DU-145): 9.46 µM (inactive)
- GI50 (HT-29): 2.12 µM (inactive)
- GI50 (SK-MEL-5): 2.3 µM (inactive)
- GI50 (UACC-62): 14.2 µM (inactive)
- GI50 (RXF 393): 2.15 µM (inactive)
- GI50 (KM12): 3.73 µM (inactive)
- GI50 (TK-10): 11 µM (inactive)
- GI50 (MDA-MB-231): 6.5 µM (inactive)
- GI50 (HOP-62): 4.3 µM (inactive)
- GI50 (SN12C): 2.02 µM (inactive)
- GI50 (HCT-15): 4.25 µM
- GI50 (M14): 12.5 µM (inactive)
- GI50 (A549): 1.85 µM (inactive)
- GI50 (MOLT-4): 3.72 µM (inactive)
- GI50 (SF-268): 7.52 µM (inactive)
- GI50 (BT-549): 3.76 µM (inactive)

Compound: CC(=O)N[C@@H](Cc1ccc(O)cn1)C(=O)NCc1cccc(Cl)c1
- GI50 (COLO 205): > 100 µM (inactive)
- GI50 (UO-31): > 100 µM (inactive)
- GI50 (OVCAR-4): > 100 µM (inactive)
- GI50 (NCI-H522): > 100 µM (inactive)
- GI50 (PC-3): > 100 µM (inactive)
- GI50 (NCI/ADR-RES): > 100 µM (inactive)
- GI50 (MDA-MB-435): > 100 µM (inactive)
- GI50 (IGROV-1): > 100 µM (inactive)
- GI50 (CCRF-CEM): > 100 µM (inactive)
- GI50 (OVCAR-3): > 100 µM (inactive)
- GI50 (T47D): > 100 µM (inactive)
- GI50 (SF-539): > 100 µM (inactive)
- GI50 (ACHN): > 100 µM (inactive)
- GI50 (U-251): > 100 µM (inactive)
- GI50 (RPMI-8226): > 100 µM (inactive)
- GI50 (Hs-578T): > 100 µM (inactive)
- GI50 (SK-MEL-2): > 100 µM (inactive)
- GI50 (NCI-H460): > 100 µM (inactive)
- GI50 (LOX IMVI): > 100 µM (inactive)
- GI50 (MDA-N): > 100 µM (inactive)
- GI50 (SR): > 100 µM (inactive)
- GI50 (NCI-H23): > 100 µM (inactive)
- GI50 (SNB-19): > 100 µM (inactive)
- GI50 (HCT-116): > 100 µM (inactive)
- GI50 (786-0): > 100 µM (inactive)
- GI50 (SK-MEL-28): > 100 µM (inactive)
- GI50 (CAKI-1): > 100 µM (inactive)
- GI50 (HCC 2998): > 100 µM (inactive)
- GI50 (MCF7): > 100 µM (inactive)
- GI50 (K562): > 100 µM (inactive)
- GI50 (UACC-257): > 100 µM (inactive)
- GI50 (SK-OV-3): > 100 µM (inactive)
- GI50 (SW-620): > 100 µM (inactive)
- GI50 (SF-295): > 100 µM (inactive)
- GI50 (HL-60): 37.8 µM (inactive)
- GI50 (A498): > 100 µM (inactive)
- GI50 (EKVX): > 100 µM (inactive)
- GI50 (OVCAR-5): > 100 µM (inactive)
- GI50 (DU-145): > 100 µM (inactive)
- GI50 (HT-29): > 100 µM (inactive)
- GI50 (SK-MEL-5): > 100 µM (inactive)
- GI50 (UACC-62): > 100 µM (inactive)
- GI50 (RXF 393): > 100 µM (inactive)
- GI50 (KM12): > 100 µM (inactive)
- GI50 (TK-10): > 100 µM (inactive)
- GI50 (NCI-H226): > 100 µM (inactive)
- GI50 (HOP-62): > 100 µM (inactive)
- GI50 (SN12C): > 100 µM (inactive)
- GI50 (HCT-15): > 100 µM
- GI50 (M14): > 100 µM (inactive)
- GI50 (A549): > 100 µM (inactive)
- GI50 (MOLT-4): > 100 µM (inactive)
- GI50 (SF-268): > 100 µM (inactive)
- GI50 (BT-549): > 100 µM (inactive)
